The values below are quoted from earlier work in article PMC8273890, “Development of [^18F]AldoView as the First Highly Selective Aldosterone Synthase PET Tracer for Imaging of Primary Hyperaldosteronism” (Journal of Medicinal Chemistry, 2021).

The subject of one data set is hCYP11B1. Further details: method as in PMID 26005536. Particulars: read-out: IC50 CYP11B1; cited from earlier work.
The subject of a further data set is human CYP11B2. Further details: method as in PMID 26005536. Particulars: cited from earlier work.

`Fc1cncc(-c2nc3cc(F)c(F)cc3n2C2CC2)c1` [Compound 3, 1-Cyclopropyl-5,6-difluoro-2-(5-fluoropyridin-3-yl)-1H-benzo[d]imidazole, reference compound]: the IC50 in the data set on hCYP11B1 is 435 nM; in the data set on human CYP11B2 it was 4.7 nM.
